Assay results published in US11000514B2, “Antifungal compounds” (Duke University, priority 2014, dated 2021).

What was measured:
Format in all cases: cell-based
C. neo = experiment: standardized in vitro susceptibility test, C. neo; conditions: yes/no
Candida w/ FLu. = experiment: standardized in vitro susceptibility test, Candida w/ FLu.; conditions: with FLu.; yes/no
Asp = experiment: standardized in vitro susceptibility test, Asp alone (MEC)
Asp/Caspo = experiment: standardized in vitro susceptibility test, Asp/Caspo; conditions: with Caspo

Structure (SMILES)	Active C. neo (C. neo)	Active Candida w/ FLu. (Candida w/ FLu.)	Active Asp alone (MEC) (Asp; yes/no)	Active Asp Caspo (Asp/Caspo; yes/no)	Active Asp alone (MEC) (Asp; MEC concentration)	Active Asp Caspo (Asp/Caspo; concentration)
CO[C@H]1C[C@@H](C)C/C(C)=C/[C@@H](C/C=C/c2ccc(C(=O)O)cc2)C(=O)C[C@H](O)[C@@H](C)[C@@H](/C(C)=C/[C@@H]2CC[C@@H](O)[C@H](OC)C2)OC(=O)[C@@H]2CCCCN2C(=O)C(=O)[C@]2(O)O[C@H]1[C@@H](OC)C[C@H]2C [Compound 2]	yes	no	yes	Yes	–	–
CO[C@H]1C[C@@H](C)C/C(C)=C/[C@@H](C/C=C/CC(=O)O)C(=O)C[C@H](O)[C@@H](C)[C@@H](/C(C)=C/[C@@H]2CC[C@@H](O)[C@H](OC)C2)OC(=O)[C@@H]2CCCCN2C(=O)C(=O)[C@]2(O)O[C@H]1[C@@H](OC)C[C@H]2C [Compound 5]	yes	yes	yes	yes	(8 ug/mL)	1 µg/mL
CCCC/C=C/C[C@@H]1/C=C(\C)C[C@H](C)C[C@H](OC)[C@H]2O[C@@](O)(C(=O)C(=O)N3CCCC[C@H]3C(=O)O[C@H](/C(C)=C/[C@@H]3CC[C@@H](O)[C@H](OC)C3)[C@H](C)[C@@H](O)CC1=O)[C@H](C)C[C@@H]2OC [Compound 3]	yes	yes	no	yes	–	4 µg/mL
CCC(C)C/C=C/C[C@@H]1/C=C(\C)C[C@H](C)C[C@H](OC)[C@H]2O[C@@](O)(C(=O)C(=O)N3CCCC[C@H]3C(=O)O[C@H](/C(C)=C/[C@@H]3CC[C@@H](O)[C@H](OC)C3)[C@H](C)[C@@H](O)CC1=O)[C@H](C)C[C@@H]2OC (some centres unmarked) [Compound 4]	yes	yes	no	yes	–	8 µg/mL
